How the values were obtained:
Oral availability = assay type: in vivo; conditions: compared with compound 9 (1294)
Kdr = Kdr (Homo sapiens (Human), UniProt P35968); assay: Kinase panel selectivity: Kdr; assay type: biochemical
Stability = conditions: in words
[1] = test system: 80 human protein kinases (hPKs); assay: AbbVie panel of 80 human protein kinases; assay type: biochemical; conditions: no hPKs inhibited
Prkcn = Prkcn (Homo sapiens (Human), UniProt O94806); assay: Kinase panel selectivity: Prkcn; assay type: biochemical
Solubility at pH 6.5 = assay type: physicochemical; conditions: in words
hERG = hERG (Homo sapiens (Human), UniProt Q12809); assay: hERG inhibitory activity; assay type: binding; conditions: in words, as compared to compound 9 (1294)
C. parvum Iowa strain = assay: C. parvum infection in mice (beige/SCID mouse model); conditions: oral gavage 20 mg/kg 8 AM and 40 mg/kg 5 PM, days 5-14 after infection; each time point except Days 0 and 3; p ≤0.05
[2] = test system: 24 off-target liabilities (e.g. ion channels, G-protein receptors); assay: 24 off-target liability screen

Prkcn, sequence (O94806 whole entry, looked up, species assumed): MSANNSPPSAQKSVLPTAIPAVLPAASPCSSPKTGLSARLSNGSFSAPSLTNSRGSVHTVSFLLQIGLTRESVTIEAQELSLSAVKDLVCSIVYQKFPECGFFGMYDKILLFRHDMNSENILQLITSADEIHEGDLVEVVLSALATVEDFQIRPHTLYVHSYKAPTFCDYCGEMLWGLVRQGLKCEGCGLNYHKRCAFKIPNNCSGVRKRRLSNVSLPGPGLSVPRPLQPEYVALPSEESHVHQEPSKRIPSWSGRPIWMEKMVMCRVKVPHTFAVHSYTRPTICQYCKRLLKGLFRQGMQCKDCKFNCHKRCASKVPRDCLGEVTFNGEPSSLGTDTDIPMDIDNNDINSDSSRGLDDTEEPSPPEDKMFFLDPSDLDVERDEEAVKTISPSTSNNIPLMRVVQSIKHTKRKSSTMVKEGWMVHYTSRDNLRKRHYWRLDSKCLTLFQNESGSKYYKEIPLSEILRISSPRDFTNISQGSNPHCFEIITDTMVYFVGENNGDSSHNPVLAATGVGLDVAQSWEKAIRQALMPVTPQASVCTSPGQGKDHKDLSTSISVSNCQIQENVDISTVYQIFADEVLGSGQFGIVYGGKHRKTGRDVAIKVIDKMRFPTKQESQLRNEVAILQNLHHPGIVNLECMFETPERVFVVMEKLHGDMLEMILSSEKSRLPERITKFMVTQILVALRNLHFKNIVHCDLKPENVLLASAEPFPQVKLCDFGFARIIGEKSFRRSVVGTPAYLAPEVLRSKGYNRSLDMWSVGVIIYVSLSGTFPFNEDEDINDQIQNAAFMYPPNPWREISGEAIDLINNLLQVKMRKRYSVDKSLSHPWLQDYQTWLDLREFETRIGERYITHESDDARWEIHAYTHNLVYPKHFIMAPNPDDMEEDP
Kdr, sequence (P35968 20-1356, species assumed): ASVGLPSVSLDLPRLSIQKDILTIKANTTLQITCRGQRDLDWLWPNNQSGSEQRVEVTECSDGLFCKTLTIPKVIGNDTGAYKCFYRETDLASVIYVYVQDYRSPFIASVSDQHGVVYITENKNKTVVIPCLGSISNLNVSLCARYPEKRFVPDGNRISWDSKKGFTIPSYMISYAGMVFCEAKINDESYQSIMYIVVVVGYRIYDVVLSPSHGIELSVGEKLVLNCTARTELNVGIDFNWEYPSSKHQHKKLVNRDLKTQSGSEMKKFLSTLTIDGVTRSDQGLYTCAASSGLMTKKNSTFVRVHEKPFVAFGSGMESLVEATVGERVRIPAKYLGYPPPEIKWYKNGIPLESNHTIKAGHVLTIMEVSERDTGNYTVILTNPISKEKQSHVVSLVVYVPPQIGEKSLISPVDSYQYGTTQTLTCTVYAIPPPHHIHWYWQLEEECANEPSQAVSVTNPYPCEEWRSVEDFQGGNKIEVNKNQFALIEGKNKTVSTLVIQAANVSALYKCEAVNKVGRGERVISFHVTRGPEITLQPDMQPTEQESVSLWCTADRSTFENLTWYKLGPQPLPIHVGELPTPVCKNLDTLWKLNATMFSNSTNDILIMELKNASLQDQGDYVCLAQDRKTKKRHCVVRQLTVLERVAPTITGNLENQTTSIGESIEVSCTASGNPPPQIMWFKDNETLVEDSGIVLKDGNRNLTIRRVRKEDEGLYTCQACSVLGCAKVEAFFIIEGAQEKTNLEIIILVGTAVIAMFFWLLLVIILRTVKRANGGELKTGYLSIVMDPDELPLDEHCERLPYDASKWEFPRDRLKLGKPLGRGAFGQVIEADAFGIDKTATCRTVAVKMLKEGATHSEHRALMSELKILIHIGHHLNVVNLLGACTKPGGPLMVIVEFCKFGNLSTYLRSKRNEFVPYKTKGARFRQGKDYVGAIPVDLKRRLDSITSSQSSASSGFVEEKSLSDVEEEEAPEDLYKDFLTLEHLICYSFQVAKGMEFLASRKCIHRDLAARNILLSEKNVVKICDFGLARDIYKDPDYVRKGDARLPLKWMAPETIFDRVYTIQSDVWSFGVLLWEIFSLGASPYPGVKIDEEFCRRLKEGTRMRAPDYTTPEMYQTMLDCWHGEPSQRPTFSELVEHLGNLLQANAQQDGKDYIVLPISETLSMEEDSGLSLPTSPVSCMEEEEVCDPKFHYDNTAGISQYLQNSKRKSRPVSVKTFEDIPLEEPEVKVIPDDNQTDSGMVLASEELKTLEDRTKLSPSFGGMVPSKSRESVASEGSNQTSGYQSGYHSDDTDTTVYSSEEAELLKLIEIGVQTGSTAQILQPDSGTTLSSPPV
hERG, sequence (Q12809 whole entry): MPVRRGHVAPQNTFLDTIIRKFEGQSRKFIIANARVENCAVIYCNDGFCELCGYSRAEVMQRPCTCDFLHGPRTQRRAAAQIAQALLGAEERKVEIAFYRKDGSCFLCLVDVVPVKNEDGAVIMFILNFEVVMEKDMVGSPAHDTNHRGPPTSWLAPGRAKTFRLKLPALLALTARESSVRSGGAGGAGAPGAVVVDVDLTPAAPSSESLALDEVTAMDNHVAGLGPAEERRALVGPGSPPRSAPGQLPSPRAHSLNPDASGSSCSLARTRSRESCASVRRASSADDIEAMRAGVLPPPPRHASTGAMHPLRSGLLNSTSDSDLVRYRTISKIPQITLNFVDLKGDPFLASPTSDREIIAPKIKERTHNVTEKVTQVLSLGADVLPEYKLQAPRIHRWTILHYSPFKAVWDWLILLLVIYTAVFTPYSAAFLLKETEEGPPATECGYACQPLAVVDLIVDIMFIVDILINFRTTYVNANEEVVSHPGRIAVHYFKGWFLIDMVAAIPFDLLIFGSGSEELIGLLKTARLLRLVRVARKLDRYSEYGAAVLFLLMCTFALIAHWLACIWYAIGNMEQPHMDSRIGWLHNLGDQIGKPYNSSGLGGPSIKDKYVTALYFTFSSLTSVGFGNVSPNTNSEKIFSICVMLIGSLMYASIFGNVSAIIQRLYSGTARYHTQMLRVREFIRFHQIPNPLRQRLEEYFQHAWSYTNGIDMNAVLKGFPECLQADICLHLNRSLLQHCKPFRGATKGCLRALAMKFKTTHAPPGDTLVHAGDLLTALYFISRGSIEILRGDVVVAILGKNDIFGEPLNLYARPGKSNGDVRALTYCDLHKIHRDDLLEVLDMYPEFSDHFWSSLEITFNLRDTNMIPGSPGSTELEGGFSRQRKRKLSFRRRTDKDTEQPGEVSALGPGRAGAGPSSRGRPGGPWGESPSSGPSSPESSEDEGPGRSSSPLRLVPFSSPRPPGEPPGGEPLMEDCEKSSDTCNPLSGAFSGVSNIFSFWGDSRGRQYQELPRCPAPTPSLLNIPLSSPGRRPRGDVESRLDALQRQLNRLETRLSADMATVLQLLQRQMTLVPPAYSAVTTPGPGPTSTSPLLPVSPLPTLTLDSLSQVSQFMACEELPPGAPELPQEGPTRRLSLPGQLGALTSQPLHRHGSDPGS

## CCOc1ccc2cc(-c3nn(C(C)(C)C)c(N)c3C(N)=O)cnc2c1 [Compound 39, 5-amino-1-(tert-butyl)-3-(7-ethoxyquinolin-3-yl)-1H-pyrazole-4-carboxamide]
Oral availability
  oral availability: higher oral availability
Kdr
  Kdr pKi: 6.24
Stability
  stability: good stability
[1]
  inhibition of hPKs, level without inhibition: > 3 µM
Prkcn
  Prkcn pKi: 6.37
Solubility at pH 6.5
  solubility: good solubility
hERG
  hERG inhibitory activity: no hERG inhibitory activity
C. parvum Iowa strain
  oocysts shed in stool, difference between treated and vehicle groups: the difference was significant
[2]
  signal in 24 off-target liability screen: no signal was detected
